System: HFSKF-II cells (human skin fibroblast)
Test: Ability to suppress the generation of active oxygen caused by ultraviolet radiation
Format: cell-based
Conditions: 100 μg/mL in medium with 0.03 wt % hydrogen peroxide; UV A 365 nm 4.4 J/cm^2; DCFH-DA fluorescence; six wells
Experimental: HFSKF-II cells (human skin fibroblast; obtained from RIKEN) were seeded in a 96-well plate at a concentration of 2×10^5 cells/well, and using 0.1 mL of standard medium (Ham's F-12 medium containing 15% of fetal calf serum; manufactured by Sigma-Aldrich), these were incubated for 24 hours at 37° C. in a 5% CO2 atmosphere. Next, the plate was washed three times with PBS by the method of Hong Wang et al. (Free Radic. Biol. Med., 1999). Then the medium was replaced with a standard medium containing 100 μM of DCFH-DA (2′,7′-dichlorofluorescein diacetate; manufactured by Sigma-Aldrich) and this was incubated for 10 minutes at 37° C. in a 5% CO2 atmosphere. Next, the plate was washed three times with PBS. […] UV A is a UV radiation that readily passes through skin, and is known to promote skin aging.
Next, the fluorescence F of the DCFH-DA that is emitted due to the presence of active oxygen was measured with a multispectrometer (Varioscan; excitation wavelength: 485±10 nm, detection wavelength: 530±10 nm; Thermo Electron Corporation), and the suppression rate of the active oxygen generation due to UV radiation when the pueraria flower extract was employed was calculated from the following formula. […] Fsample: The fluorescence measured after the medium was replaced with a standard medium that contains pueraria flower extract and UV A was irradiated. […]

COC1=C(OC)C(=O)C(C/C=C(\C)CC/C=C(\C)CC/C=C(\C)CC/C=C(\C)CC/C=C(\C)CC/C=C(\C)CC/C=C(\C)CC/C=C(\C)CC/C=C(\C)CCC=C(C)C)=C(C)C1=O [Coenzyme Q10, coenzyme Q10]
Suppression rate of the active oxygen generation (%): 30.6 ± 7.7%

Source: patent US20070243144A1, “External Preparation” (TOYO SHINYAKU CO., LTD, priority 2004, published 2007)
